From ChEMBL document CHEMBL5143556, “Molecular hybridization used to design and synthesize neo-tanshinlactone derivatives as PD-1/PD-L1 inhibitors” (Bioorg Med Chem, 2022)
Activity calls are given as the source filed them. The rule behind the calls is not given here.

What was measured:
[1] = Cytotoxicity against T cell (unknown origin); type: toxicity, cell-based, Homo sapiens; conditions: T cells
[2] = system: Jurkat; experiment: Induction of anti-CD3/CD28 antibodies-stimulated human Jurkat T cell activation co-cultured with MDA-MB-231 cells assessed as increase IFN-gamma protein expression in CD8+ cells at 5 uM after 48 hrs by flow cytometric analysis; type: functional, cell-based
[3] = system: MC-38; experiment: Antitumour activity against mouse MC38 cells implanted in C57BL6 mouse assessed reduction in tumor size at 25 mg/kg, IG for 16 days; type: functional, organism-based; conditions: time 16.0 day
[4] = system: Jurkat; experiment: Induction of anti-CD3/CD28 antibodies-stimulated human Jurkat T cell activation co-cultured with MDA-MB-231 cells assessed as increase TNFalpha protein expression in CD8+ cells at 5 uM in presence of PMA and ionomycin after 48 hrs by flow cytometric analysis; type: functional, cell-based
[5] = system: Jurkat; experiment: Induction of anti-CD3/CD28 antibodies-stimulated human Jurkat T cell activation co-cultured with MDA-MB-231 cells assessed as increase TNFalpha protein expression in CD8+ cells at 5 uM after 48 hrs by flow cytometric analysis; type: functional, cell-based
[6] = system: MC-38; experiment: Antitumour activity against mouse MC38 cells implanted in C57BL6 mouse assessed reduction in tumor weight at 25 mg/kg, IG for 16 days; type: functional, organism-based; conditions: time 16.0 day
[7] = system: Jurkat; experiment: Induction of anti-CD3/CD28 antibodies-stimulated human Jurkat T cell activation co-cultured with MDA-MB-231 cells assessed as increase granzyme B protein expression in CD8+ cells at 5 uM after 48 hrs by flow cytometric analysis; type: functional, cell-based
[8] = system: Jurkat; experiment: Induction of anti-CD3/CD28 antibodies-stimulated human Jurkat T cell activation co-cultured with MDA-MB-231 cells assessed as increase granzyme B protein expression in CD8+ cells at 5 uM in presence of PMA and ionomycin after 48 hrs by flow cytometric analysis; type: functional, cell-based
[9] = system: MC-38; experiment: Antitumour activity against mouse MC38 cells implanted in C57BL6 mouse assessed increase in CD4+CD8- cells at 25 mg/kg, IG for 16 days by flow cytometric analysis; type: functional, organism-based; conditions: time 16.0 day
[10] = system: Jurkat; experiment: Cytotoxicity against human Jurkat T cells co-cultured with MDA-MB-231 cells assessed as reduction in cell viability at 5 to 10 uM after 48 hrs by CFSE staining based flow cytometric analysis; type: toxicity; conditions: dose 5-10 µM
[11] = system: Jurkat; experiment: Induction of anti-CD3/CD28 antibodies-stimulated human Jurkat T cell activation co-cultured with MDA-MB-231 cells assessed as increase IFN-gamma protein expression in CD8+ cells in presence of PMA and ionomycin at 5 uM after 48 hrs by flow cytometric analysis; type: functional, cell-based
[12] = system: MC-38; experiment: Antitumour activity against mouse MC38 cells implanted in C57BL6 mouse assessed increase in CD4+CD8-Tim3+ cells at 25 mg/kg, IG for 16 days by flow cytometric analysis; type: functional, organism-based; conditions: time 16.0 day
[13] = system: MC-38; experiment: Antitumour activity against mouse MC38 cells implanted in C57BL6 mouse assessed decrease in CD4+CD8-PD1+ cells at 10 to 25 mg/kg, IG for 16 days by flow cytometric analysis; type: functional, organism-based; conditions: dose 10-25 mg/kg, time 16.0 day
[14] = system: MC-38; experiment: Antitumour activity against mouse MC38 cells implanted in C57BL6 mouse assessed reduction in tumor growth at 10 to 25 mg/kg, IG for 16 days by PCNA staining based immunohistochemical analysis; type: functional, organism-based; conditions: dose 10-25 mg/kg, time 16.0 day
[15] = system: MC-38; experiment: Antitumour activity against mouse MC38 cells implanted in C57BL6 mouse assessed increase in CD4-CD8+Tim3+ cells at 10 to 25 mg/kg, IG for 16 days by flow cytometric analysis; type: functional, organism-based; conditions: dose 10-25 mg/kg, time 16.0 day
[16] = system: Jurkat; experiment: Cytotoxicity against human Jurkat T cells co-cultured with MDA-MB-231 cells assessed as reduction in cell viability at 50 uM after 48 hrs by CFSE staining based flow cytometric analysis; type: toxicity
[17] = system: MC-38; experiment: Antitumour activity against mouse MC38 cells implanted in C57BL6 mouse assessed reduction in tumor growth at 10 to 25 mg/kg, IG for 16 days by Ki67 staining based immunohistochemical analysis; type: functional, organism-based; conditions: dose 10-25 mg/kg, time 16.0 day
[18] = system: MC-38; experiment: Antitumour activity against mouse MC38 cells implanted in C57BL6 mouse assessed increase in CD4-CD8+PD-1+ cells at 10 to 25 mg/kg, IG for 16 days by flow cytometric analysis; type: functional, organism-based; conditions: dose 10-25 mg/kg, time 16.0 day
[19] = system: MC-38; experiment: Antitumour activity against mouse MC38 cells implanted in C57BL6 mouse assessed reduction in tumor weight at 10 to 25 mg/kg, IG for 16 days; type: functional, organism-based; conditions: dose 10-25 mg/kg, time 16.0 day
[20] = system: Jurkat; experiment: Induction of cell proliferation in human Jurkat T cells co-cultured with MDA-MB-231 cells assessed as increase in cell viability at < 5 uM after 48 hrs by CFSE staining based flow cytometric analysis; type: functional
[21] = system: MC-38; experiment: Antitumour activity against mouse MC38 cells implanted in C57BL6 mouse assessed increase in CD4+CD8-Tim3+ cells at 10 to 25 mg/kg, IG for 16 days by flow cytometric analysis; type: functional, organism-based; conditions: dose 10-25 mg/kg, time 16.0 day
[22] = system: MC-38; experiment: Antitumour activity against mouse MC38 cells implanted in C57BL6 mouse assessed reduction in tumor size at 10 to 25 mg/kg, IG for 16 days; type: functional, organism-based; conditions: dose 10-25 mg/kg, time 16.0 day
[23] = system: MCF7; experiment: Antiproliferative activity against human MCF7 cells assessed as reduction in […]; type: functional, cell-based
[24] = system: ZR-75-1; experiment: Antiproliferative activity against human ZR-75-1 cells assessed as reduction in […]; type: functional, cell-based
[25] = system: SK-BR-3; experiment: Antiproliferative activity against human SK-BR-3 cells assessed as reduction in […]; type: functional, cell-based

SMILES	EC50 [1] [nM]	Activity [2]	Activity [4]	Activity [5]	Activity [7]	Activity [8]	Activity [11]	Activity [16]	Activity [20]	also measured
Cc1c(COc2cc(OCc3cccc(C#N)c3)c(CN3C[C@@H](O)C[C@H]3C(=O)O)cc2Cl)cccc1-c1ccc2c(c1)OCCO2	1.4	–	–	–	–	–	–	–	–	–
COc1nc(OCc2cccc(-c3ccccc3)c2C)ccc1CNCCNC(C)=O	11	Active	Active	Active	Active	Active	Active	–	–	Activity [3]: Active; Activity [6]: Active; Activity [9]: Active; Activity [10]: Non-Toxic; Activity [12]: Active
Cc1c(COc2ccc(CN3Cc4ccccc4C[C@@H]3C(=O)O)c(Oc3cc(=O)oc4c3ccc3ccccc34)c2)cccc1-c1ccccc1	–	Active	Active	Active	Active	Active	Active	Toxic	Active	Activity [13]: Active; TGI [14]: Active; Activity [15]: Active; TGI [17]: Active; Activity [18]: Active; Activity [19]: Active; Activity [21]: Active; Activity [22]: Active
O=C(O)[C@@H]1Cc2ccccc2CN1Cc1ccc(OCc2cccc(-c3ccccc3)c2Br)cc1Oc1cc(=O)oc2c1ccc1ccccc12	–	Active	Active	Active	Active	Active	Active	Toxic	–	–
Cc1c(COc2ccc(CN3Cc4ccccc4CC3C(=O)O)c(Oc3cc(=O)oc4ccccc34)c2)cccc1-c1ccccc1 (racemic)	–	–	–	–	–	–	–	–	Active	–
CCc1cccc2c1ccc1c3occ(C)c3c(=O)oc21	–	–	–	–	–	–	–	–	–	EC50 [23]: 0.45 µg/mL; EC50 [24]: 0.18 µg/mL; EC50 [25]: 0.1 µg/mL
